Patent US20260306640A1, “TECHNOLOGIES TARGETING CELL STATES” (Auron Therapeutics, Inc., priority 2023, published 2026)

Each compound was assayed against KAT2A (Homo sapiens, UniProt Q92830) (assay: KAT2A degradation, Western Blot (Jess), MOLM-13 cells). Conditions: MOLM-13 cells, KAT2A, 24 h, Western Blot, vs DMSO; read-out: KAT2A MOLM-13 DC50.
Assay type: cell-based
Set-up: degrader, Western blot
Experimental: MOLM-13 cells or NCI-H1048 cells were used for Western Blot analysis of KAT2A degradation. KAT2B degradation can be measured in a similar manner with NCI-H1048 cells.
MOLM-13 cells were maintained at 37° C. in 5% CO2 and 90% humidity in RPMI 1640 supplemented with 20% fetal bovine serum (FBS) and 1× penicillin/streptomycin. Cells were plated in full media at 1-2 million cells/2 mL in a 6-well tissue culture treated plate with or without compounds for 24 h at 37° C. in 5% CO2.
MOLM-13 cells or NCI-H1048 cells were washed with PBS, then lysed with RIPA buffer containing 1×protease and phosphatase inhibitors (SantaCruz Biotechnologies Cat #sc-24948A). Protein was isolated by centrifugation at 12,000×g for 10 minutes at 4° C. and supernatant was collected. Protein was quantified via Bradford assay. Samples were diluted to 4 μg lysate in 16 μL RIPA buffer and then 4 μL of Jess Sample Buffer. Samples were heated at 95° C. for 5 minutes. Samples were loaded onto 12-230 kDa Jess™ Separation Module, 8×25 capillary cartridges (SM-W004, Biotechne). Antibodies loaded were: Primary antibody for KAT2A (GCN5L2 (C26A10) Rabbit mAb (3305, CST)) and for KAT2B (PCAF (C14G9)) Rabbit mAb (3378, CST) at 1:1000 and Anti-Rabbit Detection Module for Jess™ (Cat No #DM-001, Biotechne). Signal was detected by chemiluminescence.
DC50 values were determined from percent reduction of protein as compared to the DMSO control.

KAT2A, sequence (Q92830 whole entry): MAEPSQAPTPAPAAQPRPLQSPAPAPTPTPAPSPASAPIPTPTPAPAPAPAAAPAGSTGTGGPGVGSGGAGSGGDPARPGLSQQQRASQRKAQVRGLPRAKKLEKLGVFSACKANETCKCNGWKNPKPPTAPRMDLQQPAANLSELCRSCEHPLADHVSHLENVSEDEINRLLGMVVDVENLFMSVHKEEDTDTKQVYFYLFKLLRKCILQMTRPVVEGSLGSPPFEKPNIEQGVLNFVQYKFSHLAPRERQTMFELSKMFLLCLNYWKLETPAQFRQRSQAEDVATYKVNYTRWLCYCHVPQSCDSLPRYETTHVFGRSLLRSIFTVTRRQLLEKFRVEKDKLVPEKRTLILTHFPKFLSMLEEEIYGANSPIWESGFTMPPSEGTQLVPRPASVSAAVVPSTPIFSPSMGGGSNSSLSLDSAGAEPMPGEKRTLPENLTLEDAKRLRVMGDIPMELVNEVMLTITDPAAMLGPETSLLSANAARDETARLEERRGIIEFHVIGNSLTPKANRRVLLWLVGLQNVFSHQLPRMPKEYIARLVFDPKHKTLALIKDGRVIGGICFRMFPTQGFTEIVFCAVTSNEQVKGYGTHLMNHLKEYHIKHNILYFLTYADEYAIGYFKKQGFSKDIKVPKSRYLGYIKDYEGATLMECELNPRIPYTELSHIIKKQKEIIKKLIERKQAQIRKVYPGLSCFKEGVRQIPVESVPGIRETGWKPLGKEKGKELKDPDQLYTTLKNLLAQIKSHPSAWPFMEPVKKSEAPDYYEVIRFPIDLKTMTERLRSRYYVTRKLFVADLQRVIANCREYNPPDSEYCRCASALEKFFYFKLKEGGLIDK

Compound	DC50
CN1C[C@H](Nc2cnn(C)c(=O)c2Br)C[C@H](c2ccc(C(=O)N3CC4(CN(Cc5cccc6c5C(=O)N(C5CCC(=O)NC5=O)C6=O)C4)C3)cc2)C1 (stereo partly drawn) [Compound 59]	1 to 30 nM
CN1C[C@H](Nc2cnn(C)c(=O)c2Br)C[C@H](c2ccc(C(=O)N3CC4(CN(Cc5ccc6c(c5)C(=O)N(C5CCC(=O)NC5=O)C6=O)C4)C3)cc2)C1 (stereo partly drawn) [Compound 60]	1 to 30 nM
CN1C[C@H](Nc2cnn(C)c(=O)c2Br)C[C@H](c2ccc(C(=O)N3CCN(Cc4ccc(C(=O)Nc5ccc6c(c5)C(=O)N(C5CCC(=O)NC5=O)C6=O)cc4)CC3)cc2)C1 (stereo partly drawn) [Compound 61]	1 to 30 nM
CN1C[C@H](Nc2cnn(C)c(=O)c2Br)C[C@H](c2ccc(C(=O)N3CC(Oc4cccc5c4C(=O)N(C4CCC(=O)NC4=O)C5=O)C3)cc2)C1 (stereo partly drawn) [Compound 62]	1 to 30 nM
CN1C[C@H](Nc2cnn(C)c(=O)c2Br)C[C@H](c2ccc(C(=O)N3CCC(c4ccc5c(c4)CN(C4CCC(=O)NC4=O)C5=O)CC3)cc2)C1 (stereo partly drawn) [Compound 63]	< 1 nM
CN1C[C@H](Nc2cnn(C)c(=O)c2Br)C[C@H](c2ccc(CN3CC(Oc4cccc5c4C(=O)N(C4CCC(=O)NC4=O)C5=O)C3)cc2)C1 (stereo partly drawn) [Compound 64]	1 to 30 nM
CN1C[C@H](Nc2cnn(C)c(=O)c2Br)C[C@H](c2ccc(COc3ccc4c(c3)CN(C3CCC(=O)NC3=O)C4=O)cc2)C1 (stereo partly drawn) [Compound 65]	> 30 nM
CN1C[C@H](Nc2cnn(C)c(=O)c2Br)C[C@H](c2ccc(CN3CCC(c4ccc5c(c4)CN(C4CCC(=O)NC4=O)C5=O)CC3)cc2)C1 (stereo partly drawn) [Compound 66]	< 1 nM
CN1C[C@H](Nc2ccn(C)c(=O)c2Br)C[C@H](c2ccc(CN3CCC(c4ccc5c(c4)CN(C4CCC(=O)NC4=O)C5=O)CC3)cc2)C1 (stereo partly drawn) [Compound 68]	< 1 nM
CN1C[C@H](Nc2cnn(C)c(=O)c2Br)C[C@H](c2ccc(CN3CCN(c4ccc(C5CCC(=O)NC5=O)cc4)CC3)cc2)C1 (stereo partly drawn) [Compound 69]	< 1 nM
CN1C[C@H](Nc2cnn(C)c(=O)c2Cl)C[C@H](c2ccc(CN3CCC(c4ccc5c(c4)CN(C4CCC(=O)NC4=O)C5=O)CC3)cc2)C1 (stereo partly drawn) [Compound 70]	< 1 nM
CN1C[C@H](Nc2cnn(C)c(=O)c2Br)C[C@H](c2ccc(C(=O)N3CCN(Cc4ccc5c(c4)CN(C4CCC(=O)NC4=O)C5=O)CC3)cc2)C1 (stereo partly drawn) [Compound 71]	< 1 nM
CN1C[C@H](Nc2cnn(C)c(=O)c2Br)C[C@H](c2ccc(C(=O)N3CCC(c4ccc5c(c4)CN(C4CCC(=O)NC4=O)C5=O)CC3)cc2)C1 (stereo partly drawn) [Compound 73]	1 to 30 nM
CN1C[C@H](Nc2cnn(C)c(=O)c2Br)C[C@H](c2ccc(CN3CCN(Cc4ccc5c(c4)CN(C4CCC(=O)NC4=O)C5=O)CC3)cc2)C1 (stereo partly drawn) [Compound 74]	< 1 nM
CN1C[C@H](Nc2cnn(C)c(=O)c2Cl)C[C@H](c2ccc(CN3CCN(Cc4ccc5c(c4)CN(C4CCC(=O)NC4=O)C5=O)CC3)cc2)C1 (stereo partly drawn) [Compound 75]	1 to 30 nM
CN1C[C@H](Nc2cnn(C)c(=O)c2Cl)C[C@H](c2ccc(C(=O)N3CCN(Cc4ccc5c(c4)CN(C4CCC(=O)NC4=O)C5=O)CC3)cc2)C1 (stereo partly drawn) [Compound 76]	1 to 30 nM
CN1C[C@H](Nc2cnn(C)c(=O)c2Cl)C[C@H](c2ccc(C(=O)N3CCC(c4ccc5c(c4)CN(C4CCC(=O)NC4=O)C5=O)CC3)cc2)C1 (stereo partly drawn) [Compound 77]	1 to 30 nM
CN1C[C@H](Nc2cnn(C)c(=O)c2Br)C[C@H](c2ccc(CN3CCN(c4ccc(N5CCC(=O)NC5=O)cc4)CC3)cc2)C1 [Compound 78]	> 30 nM
CN1C[C@H](Nc2cnn(C)c(=O)c2Br)C[C@H](c2ccc(C(=O)N3CCN(Cc4cccc5c4CN(C4CCC(=O)NC4=O)C5=O)CC3)cc2)C1 (stereo partly drawn) [Compound 79]	1 to 30 nM
CN1C[C@H](Nc2cnn(C)c(=O)c2Br)C[C@H](c2ccc(C(=O)N3CCN(Cc4ccc(C5CCC(=O)NC5=O)cc4)CC3)cc2)C1 (stereo partly drawn) [Compound 80]	< 1 nM
CN1C[C@H](Nc2cnn(C)c(=O)c2Br)C[C@H](c2ccc(C(=O)N3CCC(c4ccc(C5CCC(=O)NC5=O)cc4)CC3)cc2)C1 (stereo partly drawn) [Compound 81]	1 to 30 nM
CN1C[C@H](Nc2cnn(C)c(=O)c2Br)C[C@H](c2ccc(C(=O)N3CCC4(CCN(c5ccc(C6CCC(=O)NC6=O)cc5)C4)C3)cc2)C1 (stereo partly drawn) [Compound 82]	< 1 nM
CN1C[C@H](Nc2cnn(C)c(=O)c2Br)C[C@H](c2ccc(C(=O)N3CCC(c4cccc5c4CN(C4CCC(=O)NC4=O)C5=O)CC3)cc2)C1 (stereo partly drawn) [Compound 83]	1 to 30 nM
CN1C[C@H](Nc2cnn(C)c(=O)c2)C[C@H](c2ccc(CN3CCC(c4ccc5c(c4)CN(C4CCC(=O)NC4=O)C5=O)CC3)cc2)C1 (stereo partly drawn) [Compound 85]	> 30 nM

Compound	DC50
CN1C[C@H](Nc2cnn(C)c(=O)c2Br)C[C@H](c2ccc(CN3CCC(c4ccc(C5CCC(=O)NC5=O)cc4)CC3)cc2)C1 (stereo partly drawn) [Compound 87]	1 to 30 nM
CN1C[C@H](Nc2cnn(C)c(=O)c2Br)C[C@H](c2ccc(CN3CCC4(CC3)CCN(c3ccc(C5CCC(=O)NC5=O)cc3)CC4)cc2)C1 (stereo partly drawn) [Compound 88]	< 1 nM
CN1C[C@H](Nc2cnn(C)c(=O)c2Br)C[C@H](c2ccc(CN3CCC4(CCN(c5ccc(C6CCC(=O)NC6=O)cc5)C4)C3)cc2)C1 (stereo partly drawn) [Compound 89]	< 1 nM
CN1C[C@H](Nc2cnn(C)c(=O)c2Cl)C[C@H](c2ccc(C(=O)N3CCC(c4cccc5c4CN(C4CCC(=O)NC4=O)C5=O)CC3)cc2)C1 (stereo partly drawn) [Compound 91]	> 30 nM
CN1C[C@H](Nc2cnn(C)c(=O)c2Br)C[C@H](c2ccc(CN3CCC(c4cccc5c4CN(C4CCC(=O)NC4=O)C5=O)CC3)cc2)C1 (stereo partly drawn) [Compound 92]	1 to 30 nM
CN1C[C@H](Nc2cnn(C)c(=O)c2Br)C[C@H](c2ccc(C(=O)N3CC(Oc4ccc5c(c4)CN(C4CCC(=O)NC4=O)C5=O)C3)cc2)C1 (stereo partly drawn) [Compound 93]	< 1 nM
CN1C[C@H](Nc2cnn(C)c(=O)c2Cl)C[C@H](c2ccc(CN3CCC(c4cccc5c4CN(C4CCC(=O)NC4=O)C5=O)CC3)cc2)C1 (stereo partly drawn) [Compound 94]	> 30 nM
CN1C[C@H](Nc2cnn(C)c(=O)c2Br)C[C@H](c2ccc(CN3CC(Oc4ccc5c(c4)C(=O)N(C4CCC(=O)NC4=O)C5=O)C3)cc2)C1 (stereo partly drawn) [Compound 95]	< 1 nM
CN1C[C@H](Nc2cnn(C)c(=O)c2Br)C[C@H](c2ccc(C(=O)N3CCC(N4CCN(c5ccc6c(c5)C(=O)N(C5CCC(=O)NC5=O)C6=O)CC4)CC3)cc2)C1 (stereo partly drawn) [Compound 96]	< 1 nM
CN1C[C@H](Nc2cnn(C)c(=O)c2Br)C[C@H](c2ccc(C(=O)N3CCC4(CC3)CN(c3ccc5c(c3)C(=O)N(C3CCC(=O)NC3=O)C5=O)C4)cc2)C1 (stereo partly drawn) [Compound 97]	< 1 nM
CN1C[C@H](Nc2cnn(C)c(=O)c2Br)C[C@H](c2ccc(C(=O)N3CCC4(CCN(c5ccc6c(c5)C(=O)N(C5CCC(=O)NC5=O)C6=O)C4)C3)cc2)C1 (stereo partly drawn) [Compound 98]	1 to 30 nM
CN1C[C@H](Nc2cnn(C)c(=O)c2Br)C[C@H](c2ccc(CN3CCN(Oc4cccc5c4CN(C4CCC(=O)NC4=O)C5=O)CC3)cc2)C1 (stereo partly drawn) [Compound 99]	< 1 nM
CN1C[C@H](Nc2cnn(C)c(=O)c2Br)C[C@H](c2ccc(C(=O)N3CCN(Cc4cccc(C5CCC(=O)NC5=O)c4)CC3)cc2)C1 (stereo partly drawn) [Compound 100]	< 1 nM
CN1C[C@H](Nc2cnn(C)c(=O)c2Br)C[C@H](c2ccc(CN3CCN(c4cccc(N5CCC(=O)NC5=O)c4)CC3)cc2)C1 [Compound 101]	1 to 30 nM
CN1C[C@H](Nc2cnn(C)c(=O)c2Br)C[C@H](c2ccc(C(=O)N3CCN(Cc4ccc(N5CCC(=O)NC5=O)cc4)CC3)cc2)C1 [Compound 102]	> 30 nM
CN1C[C@H](Nc2cnn(C)c(=O)c2Br)C[C@H](c2ccc(CNC3CN(c4ccc(C5CCC(=O)NC5=O)cc4)C3)cc2)C1 (stereo partly drawn) [Compound 103]	< 1 nM
CN1C[C@H](Nc2cnn(C)c(=O)c2Cl)C[C@H](c2ccc(CN3CCN(c4ccc(C5CCC(=O)NC5=O)cc4)CC3)cc2)C1 (stereo partly drawn) [Compound 104]	1 to 30 nM
CN1C[C@H](Nc2ccn(C)c(=O)c2Cl)C[C@H](c2ccc(COc3ccc4c(c3)C(=O)N(C3CCC(=O)NC3=O)C4=O)cc2)C1 (stereo partly drawn) [Compound 105]	1 to 30 nM
CN1C[C@H](Nc2cnn(C)c(=O)c2Br)C[C@H](c2ccc(CNc3ccc4c(c3)C(=O)N(C3CCC(=O)NC3=O)C4=O)cc2)C1 (stereo partly drawn) [Compound 106]	< 1 nM
CN1C[C@H](Nc2cnn(C)c(=O)c2Br)C[C@H](c2ccc(C(=O)N3CCC(CN4CCC(c5ccc6c(c5)C(=O)N(C5CCC(=O)NC5=O)C6=O)CC4)CC3)cc2)C1 (stereo partly drawn) [Compound 107]	< 1 nM
CN1C[C@H](Nc2cnn(C)c(=O)c2Br)C[C@H](c2ccc(CN3CCC4(CC3)CN(c3ccc5c(c3)C(=O)N(C3CCC(=O)NC3=O)C5=O)C4)cc2)C1 (stereo partly drawn) [Compound 108]	< 1 nM
CN1C[C@H](Nc2cnn(C)c(=O)c2Br)C[C@H](c2ccc(CN3CCC4(CCN(c5ccc6c(c5)C(=O)N(C5CCC(=O)NC5=O)C6=O)C4)C3)cc2)C1 (stereo partly drawn) [Compound 109]	< 1 nM
CN1C[C@H](Nc2cnn(C)c(=O)c2Br)C[C@H](c2ccc(C(=O)N3CCN(CC4CCN(c5ccc6c(c5)C(=O)N(C5CCC(=O)NC5=O)C6=O)CC4)CC3)cc2)C1 (stereo partly drawn) [Compound 111]	< 1 nM
CN1C[C@H](Nc2cnn(C)c(=O)c2Br)C[C@H](c2ccc(C(=O)N3CCC(F)(CN4CCN(c5ccc6c(c5)C(=O)N(C5CCC(=O)NC5=O)C6=O)CC4)CC3)cc2)C1 (stereo partly drawn) [Compound 112]	< 1 nM
